# Measured values published in patent US20040019026A1, “Compounds useful for treating hypertriglyceridemia” (priority 2000, published 2004).
# Values joined by “and” are separate entries in the source; they are usually repeats but may differ in a detail not shown here. Identical values can stand only once.
# Columns and labels:
# [1] = tested on: male BKS.Cg-m+/+Leprdb mice; test: Mortality during treatment of diabetic mice (Example 9); assay type: in vivo
# [2] = tested on: patients with rheumatoid arthritis; test: Oral fluasterone in rheumatoid arthritis patients, obese vs non-obese: triglycerides (Example 6); assay type: in vivo, human
# Experimental: In this clinical trial oral fluasterone (1200 mg) was administered daily to patients with rheumatoid arthritis for 3 to 12 weeks. Nine patients had baseline triglyceride levels 200 mg/dL. These patients were divided into obese (BMI>30) and non-obese (BMI<30) groups. […] However, the conclusion would be the same without the addition of this patient.
# The baseline levels was the mean value of week −2, 0 and the treatment levels were the last values obtained (week 3 to 12) for each patient. The obese patients has a BMI of 36.6±4.0 and the non-obese a BMI of 27.1±1.5.
# [3] = tested on: hypertriglyceridemic patients; test: Hypertriglyceridemic patients with high or low HDL, 1200 mg daily: plasma triglycerides (Example 2); assay type: in vivo, human; settings: for Triglyceride levels: 4 patients with low HDL levels
# Experimental: Five hypertriglyceridemic patients had high baseline HDL levels (>50 mg/dL, 64.2±8.5, n=10, mean±S.D.) and four hypertriglyceridemic patients had low HDL levels 40.4±4.1, n=8). They were treated as before, as described in Example 1, except they received 1200 mg of 16α-fluoro-5-androsten-17-one daily. Controls were set up so that they received 1200 mg of placebo. The triglyceride concentration in the plasma were measured pretreatment and at the end of the study.
# In those patients with high HDL levels, the triglycerides fell from 330±163 (n=10) to 214±56.1 (n=5). However, in 4 patients with low HDL levels (40.0±4.1), treatment with 1200 mg of 16α-fluoro-5-androsten-17-one daily for 3 to 12 weeks lowered triglyceride levels from 245±55.1 (n=8) to 139±10.6 (n=4), p<0.01.
# [4] = tested on: patients with rheumatoid arthritis; test: Trial in arthritis patients, 1200 mg oral fluasterone daily: HDL levels (Example 5b); assay type: in vivo, human
# Experimental: In this trial patients with rheumatoid arthritis were treated for 3 to 12 weeks with 1200 mg oral fluasterone daily. A placebo group was also included.
# [5] = tested on: male BKS.Cg-m+/+Leprdb mice; test: Fasting plasma glucose levels in diabetic mice (Example 9); assay type: in vivo
# [6] = tested on: patients with Metabolic Syndrome; test: Phase I/II buccal tablet study: triglyceride and HDL levels, incl. obese subset (Examples 7 and 8); assay type: in vivo, human
# Experimental: The study was a phase I/II randomized, double blind, dose-ranging, placebo-controlled, evaluation of the safety, tolerance, and activity on lipid laboratory markers after transmucosal (buccal) administration of two dose levels (20 mg or 80 mg) of fluasterone (16α-fluoro-5-androsten-17-one) compared to placebo in patients with Metabolic Syndrome. Study treatment consisted of eight weeks of buccal tablet administration of fluasterone or placebo control and subsequent follow-up for two weeks.
# After patient consent had been obtained, patients were screened for eligibility into the study. Following informed consent, screening and laboratory testing, patients entered a six-week dietary run-in phase during which they followed a Step II AHA diet, and discontinued all lipid-lowering agents. At 4 weeks into the dietary run-in phase, qualifying lipid and endocrine laboratory measurements were performed. After the run-in phase, patients were randomized to receive either fluasterone or placebo control. Patients received fluasterone or placebo daily for 8 weeks. Patients were followed for an additional 2 weeks for total study duration of 16 weeks. The dose levels evaluated in this study were either 20 mg or 80 mg buccal tablets of fluasterone or placebo control that were formulated to dissolve between the lower gingival surfaces of the jaw and buccal mucosa of the cheek pouch.
# Fluasterone or placebo equivalent was administered as either one or four buccal tablets. Each buccal tablet contained 16-α-fluoro-5-androsten-17-one, mannitol, crospovidone, magnesium stearate, polyethylene glycol 3350, silica gel and sodium lauryl sulfate. Patients were instructed to ingest water prior to placing the buccal tablets in their mouth. The tablets were held in the mouth without disturbance for approximately 10 minutes. Patients were instructed not to chew or swallow the tablets and not drink or eat for 30 minutes after study drug administration.
# The study consisted of a 6-week dietary run-in phase during which they followed a Step II AHA diet and discontinued all lipid-lowering agents. After the run-in phase, patients who qualified based on lipid and endocrine laboratory measurements at the qualifying visit (week −2) were randomized to receive fluasterone or placebo control. Patients received fluasterone or placebo control daily for 8 weeks. Patients were followed for an additional 2 weeks to collect adverse events and an additional lipid profile for total study duration of 16 weeks.
# Blood samples were collected for lipid determinations at the qualifying visit (week −2), at study day 1, and at weeks 2, 4, 6, 8, and 10.
# There were 8 patients treated with 80 mg fluasterone, 9 with 20 mg fluasterone, 3 patients with 80 mg placebo, and 4 patients with 20 mg placebo.
# The triglyceride level in the 80 mg fluasterone group declined from baseline by 34% at week […] and by 35% at week […]. In the combined placebo group at the corresponding time points the triglyceride levels increased by 6% and 7% respectively.
# [7] = 20 mg buccal daily, Week 2, 4, 6, & 8
# [8] = 80 mg buccal daily, Week 2, 4, 6, & 8
# [9] = obese subset, 80 mg buccal daily, Week 2, 4, 6, and 8
# [10] = obese subset, 80 mg buccal daily, Week 8
# [11] = obese subset, 80 mg buccal, Baseline (−2, 0)
smiles,measurement,setting,value
"C[C@]12CCCCC1=CC[C@@H]1[C@@H]2CC[C@]2(C)C(=O)[C@H](F)C[C@@H]12 [fluasterone, 16α-fluoro-5-androsten-17-one]",Mortality (mice died),"[1]; 5 mg/kg, i.p. group, about two weeks later",1 mouse
same,Mortality (mice died),"[1]; 200 mg/kg oral group, about 17 days later",1 mouse
same,"Decline in triglyceride level, obese vs non-obese","[2]; 1200 mg oral daily, p=0.0113, group effect",significantly greater decline in triglyceride level than the non-obese
same,Triglycerides (mean ± S.D.),"[2]; Non-obese (BMI<30), baseline (mean of week −2, 0)",310 mg/dL and 330 ± 163 (10) mg/dL
same,Triglycerides (mean ± S.D.),"[2]; Non-obese (BMI<30), treatment 1200 mg oral daily, last value (week 3 to 12)",248 ± 89.8 (5) mg/dL
same,Triglycerides (mean ± S.D.),"[2]; Obese (BMI>30), baseline (mean of week −2, 0)",232 mg/dL and 231 ± 57.1 (10) mg/dL
same,Triglycerides (mean ± S.D.),"[2]; Obese (BMI>30), treatment 1200 mg oral daily, last value (week 3 to 12)",135 ± 12.1 (5) mg/dL
same,Triglyceride levels,"[3]; after 1200 mg daily for 3 to 12 weeks, p<0.01",139±10.6
same,Triglyceride levels,[3]; pretreatment,245±55.1
same,Triglycerides,"[3]; patients with high HDL levels (>50 mg/dL), pretreatment",330±163
same,Triglycerides,"[3]; patients with high HDL levels, after 1200 mg daily",214±56.1
same,HDL Levels,"[4]; Combined (20), pretreatment",57.4 ± 14.7
same,HDL Levels,"[4]; Combined, treatment 1200 mg oral daily, 3 to 12 weeks, p < 0.02",46.9 ± 8.9
same,HDL Levels,"[4]; Females (16), pretreatment",59.8 ± 14.6 (16)
same,HDL Levels,"[4]; Females, treatment 1200 mg oral daily, 3 to 12 weeks, p < 0.01",46.8 ± 9.6
same,HDL Levels,"[4]; Males (4), pretreatment",47.0 ± 9.1 (4)
same,HDL Levels,"[4]; Males (4), treatment 1200 mg oral daily, 3 to 12 weeks",47.0 ± 5.8 (4)
same,Fasting Plasma Glucose Levels,"[5]; 5 mg/kg i.p., treatment day 0",270 ± 81.9 mg/dL
same,Fasting Plasma Glucose Levels,"[5]; 5 mg/kg i.p., treatment day 7",434 ± 264 mg/dL
same,Fasting Plasma Glucose Levels,"[5]; 5 mg/kg i.p., treatment day 14",410 ± 32.1 mg/dL
same,Fasting Plasma Glucose Levels,"[5]; 5 mg/kg i.p., treatment day 17, greater than s.c. Control, p < 0.01",635 ± 77.3^3 mg/dL
same,Fasting Plasma Glucose Levels,"[5]; 5 mg/kg s.c., treatment day 0",245 ± 102 mg/dL
same,Fasting Plasma Glucose Levels,"[5]; 5 mg/kg s.c., treatment day 7",173 ± 58.3 mg/dL
same,Fasting Plasma Glucose Levels,"[5]; 5 mg/kg s.c., treatment day 14, less than s.c. Control, p < 0.001",134 ± 29.8^1 mg/dL
same,Fasting Plasma Glucose Levels,"[5]; 5 mg/kg s.c., treatment day 17, less than s.c. Control, p < 0.001",96.0 ± 18.5^1 mg/dL
same,Fasting Plasma Glucose Levels,"[5]; 200 mg/kg oral, treatment day 0",245 ± 72.1 mg/dL
same,Fasting Plasma Glucose Levels,"[5]; 200 mg/kg oral, treatment day 7",181 ± 69.3 mg/dL
same,Fasting Plasma Glucose Levels,"[5]; 200 mg/kg oral, treatment day 14, less than oral Control, p < 0.001",107 ± 12.2^2 mg/dL
same,Fasting Plasma Glucose Levels,"[5]; 200 mg/kg oral, treatment day 17, less than oral Control, p < 0.001",104 ± 24.8^2 mg/dL
same,HDL,[6]; [7],32.6 ± 6.4 (36) mg/dL
same,Triglycerides,[6]; [7],523 ± 311 (36) mg/dL
same,HDL,"[6]; 20 mg buccal daily, Week 8",33.3 ± 6.5 (9) mg/dL
same,Triglycerides,"[6]; 20 mg buccal daily, Week 8",538 ± 285 (9) mg/dL
same,HDL,"[6]; 20 mg buccal, Baseline (−2, 0)",31.6 ± 6.2 (18) mg/dL
same,Triglycerides,"[6]; 20 mg buccal, Baseline (−2, 0)",507 ± 192 (18) mg/dL
same,HDL,[6]; [8],41.1 ± 8.1 (32) mg/dL
same,Triglycerides,[6]; [8],342 ± 111 (32) mg/dL
same,HDL,"[6]; 80 mg buccal daily, Week 8",41.6 ± 9.4 (8) mg/dL
same,Triglycerides,"[6]; 80 mg buccal daily, Week 8",292 ± 92.4 (8) mg/dL
same,Effect on HDL level,"[6]; 80 mg buccal dose, all patients",no apparent decline in HDL level
same,HDL,"[6]; 80 mg buccal, Baseline (−2, 0)",40.8 ± 8.9 (16) mg/dL
same,Triglycerides,"[6]; 80 mg buccal, Baseline (−2, 0)",455 ± 157 (16) mg/dL
same,Reduction of mean triglyceride level compared to baseline,"[6]; 80 mg buccal, mean 8-week level",36%
same,Reduction of mean triglyceride level compared to baseline,"[6]; 80 mg buccal, mean of week 2, 4, 6, & 8",at least 25%
same,Effect on HDL levels,"[6]; obese subset, 80 mg buccal",no decline in HDL levels from baseline
same,HDL,[6]; [9],40.3 ± 6.3 (20) mg/dL
same,Triglycerides,[6]; [9],313 ± 93.7 (20) mg/dL
same,HDL,[6]; [10],40.3 ± 4.6 (5) mg/dL
same,Triglycerides,[6]; [10],307 ± 106 (5) mg/dL
same,HDL,[6]; [11],39.2 ± 7.3 (10) mg/dL
same,Triglycerides,[6]; [11],472 ± 169 (10) mg/dL
same,Decline of triglyceride level from baseline,"[6]; obese subset, 80 mg buccal, week 2, 4, 6, and 8, p=0.0368 vs combined placebo",34%
same,Decline of triglyceride level from baseline,"[6]; obese subset, 80 mg buccal, week 8",35%
